# Assay results reported in PubChem BioAssay (NCI).
#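 Interpolation was linear, between the two tested concentrations surrounding the appropriate level; five concentrations were tested over 48 hours in 96-well plates. TGI is the concentration that stops growth completely.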
# Tests used:
# Test in all cases: NCI-60 cell line screen, 48 h
# SNB-19 CNS = system: SNB-19 CNS
# OVCAR-5 ovarian = system: OVCAR-5 ovarian
# SW-620 colon = system: SW-620 colon
# 786-0 renal = system: 786-0 renal
# CAKI-1 renal = system: CAKI-1 renal
# SNB-75 CNS = system: SNB-75 CNS
# M14 melanoma = system: M14 melanoma
# HS 578T breast = system: HS 578T breast
# TK-10 renal = system: TK-10 renal
# RXF 393 renal = system: RXF 393 renal
# HCT-15 colon = system: HCT-15 colon
# A549 NSCLC = system: A549 NSCLC
# HCC-2998 colon = system: HCC-2998 colon
# LOX IMVI melanoma = system: LOX IMVI melanoma
# UACC-257 melanoma = system: UACC-257 melanoma
# HOP-92 NSCLC = system: HOP-92 NSCLC
# HL-60(TB) leukemia = system: HL-60(TB) leukemia
# OVCAR-3 ovarian = system: OVCAR-3 ovarian
# MALME-3M melanoma = system: MALME-3M melanoma
# NCI-H226 lung = system: NCI-H226 lung
# SK-OV-3 ovarian = system: SK-OV-3 ovarian
# K-562 leukemia = system: K-562 leukemia
# SK-MEL-2 melanoma = system: SK-MEL-2 melanoma
# A498 renal = system: A498 renal
# SF-539 CNS = system: SF-539 CNS
# NCI-H23 lung = system: NCI-H23 lung
# NCI-H460 lung = system: NCI-H460 lung
# NCI/ADR-RES ovarian = system: NCI/ADR-RES ovarian
# UO-31 renal = system: UO-31 renal
# HT29 colon = system: HT29 colon
# ACHN renal = system: ACHN renal
# SR leukemia = system: SR leukemia
# MDA-MB-231 breast = system: MDA-MB-231 breast
# SF-268 CNS = system: SF-268 CNS
# BT-549 breast = system: BT-549 breast
# MDA-N = system: MDA-N
# MCF7 breast = system: MCF7 breast
# SN12C renal = system: SN12C renal
# SK-MEL-5 melanoma = system: SK-MEL-5 melanoma
# PC-3 prostate = system: PC-3 prostate
# SK-MEL-28 melanoma = system: SK-MEL-28 melanoma
# KM12 colon = system: KM12 colon
# NCI-H522 lung = system: NCI-H522 lung
# DU-145 prostate = system: DU-145 prostate
# HOP-62 NSCLC = system: HOP-62 NSCLC
# COLO 205 colon = system: COLO 205 colon
# HCT-116 colon = system: HCT-116 colon
# EKVX NSCLC = system: EKVX NSCLC
# U251 CNS = system: U251 CNS
# UACC-62 melanoma = system: UACC-62 melanoma
# MOLT-4 leukemia = system: MOLT-4 leukemia
# MDA-MB-435 = system: MDA-MB-435
# CCRF-CEM leukemia = system: CCRF-CEM leukemia
# RPMI-8226 leukemia = system: RPMI-8226 leukemia
# SF-295 CNS = system: SF-295 CNS
# T-47D breast = system: T-47D breast
# IGROV1 ovarian = system: IGROV1 ovarian
# OVCAR-8 ovarian = system: OVCAR-8 ovarian
structure (smiles),measurement,setting,value
CCOC(=O)NC(NNc1ccc([N+](=O)[O-])cc1[N+](=O)[O-])(C(F)(F)F)C(F)(F)F,TGI,SNB-19 CNS,> 100 µM
same,TGI,OVCAR-5 ovarian,> 100 µM
same,TGI,SW-620 colon,> 100 µM
same,TGI,786-0 renal,> 100 µM
same,TGI,CAKI-1 renal,> 100 µM
same,TGI,SNB-75 CNS,> 100 µM
same,TGI,M14 melanoma,> 100 µM
same,TGI,HS 578T breast,> 100 µM
same,TGI,TK-10 renal,96 µM
same,TGI,RXF 393 renal,> 100 µM
same,TGI,HCT-15 colon,> 100 µM
same,TGI,A549 NSCLC,> 100 µM
same,TGI,HCC-2998 colon,> 100 µM
same,TGI,LOX IMVI melanoma,> 100 µM
same,TGI,UACC-257 melanoma,> 100 µM
same,TGI,HOP-92 NSCLC,47.3 µM
same,TGI,HL-60(TB) leukemia,58.9 µM
same,TGI,OVCAR-3 ovarian,> 100 µM
same,TGI,MALME-3M melanoma,> 100 µM
same,TGI,NCI-H226 lung,> 100 µM
same,TGI,SK-OV-3 ovarian,69.4 µM
same,TGI,K-562 leukemia,> 100 µM
same,TGI,SK-MEL-2 melanoma,> 100 µM
same,TGI,A498 renal,73 µM
same,TGI,SF-539 CNS,74.3 µM
same,TGI,NCI-H23 lung,> 100 µM
same,TGI,NCI-H460 lung,> 100 µM
same,TGI,NCI/ADR-RES ovarian,> 100 µM
same,TGI,UO-31 renal,57.6 µM
same,TGI,HT29 colon,> 100 µM
same,TGI,ACHN renal,> 100 µM
same,TGI,SR leukemia,60.6 µM
same,TGI,MDA-MB-231 breast,> 100 µM
same,TGI,SF-268 CNS,> 100 µM
same,TGI,BT-549 breast,> 100 µM
same,TGI,MDA-N,> 100 µM
same,TGI,MCF7 breast,> 100 µM
same,TGI,SN12C renal,> 100 µM
same,TGI,SK-MEL-5 melanoma,> 100 µM
same,TGI,PC-3 prostate,> 100 µM
same,TGI,SK-MEL-28 melanoma,> 100 µM
same,TGI,KM12 colon,> 100 µM
same,TGI,NCI-H522 lung,77 µM
same,TGI,DU-145 prostate,> 100 µM
same,TGI,HOP-62 NSCLC,> 100 µM
same,TGI,COLO 205 colon,29.9 µM
same,TGI,HCT-116 colon,> 100 µM
same,TGI,EKVX NSCLC,> 100 µM
same,TGI,U251 CNS,64.6 µM
same,TGI,UACC-62 melanoma,> 100 µM
same,TGI,MOLT-4 leukemia,> 100 µM
same,TGI,MDA-MB-435,> 100 µM
same,TGI,CCRF-CEM leukemia,72.3 µM
same,TGI,RPMI-8226 leukemia,47.4 µM
same,TGI,SF-295 CNS,> 100 µM
same,TGI,T-47D breast,> 100 µM
same,TGI,IGROV1 ovarian,> 100 µM
same,TGI,OVCAR-8 ovarian,> 100 µM
